Results published in ChEMBL document CHEMBL5042483, “Discovery and Mechanism of SARS-CoV-2 Main Protease Inhibitors” (J Med Chem, 2022).
Calls of active or inactive are those of the source. No cut-off for these calls is given here.

Key:
SARS-CoV-2 [1] = experiment: (§1) Antiviral activity against SARS-CoV-2 USA_WA1/2020 infected in human iPSC derived lung organoids assessed as reduction in viral RNA in cell supernatant at 5 uM pretreated for 2 hrs with compound followed by viral infection for 2 hrs then followed by washout and replacement with fresh medium and measured after 72 hrs by qRT-PCR analysis relative to control; type: functional, organism-based; settings: Severe acute respiratory syndrome coronavirus 2, time 76.0 hrs
SARS-CoV-2 [2] = experiment: as §1, with “intracellular fraction” for “cell supernatant”; type: functional, organism-based; settings: Severe acute respiratory syndrome coronavirus 2, time 76.0 hrs

Structure (SMILES): O=c1c2ccccc2[se]n1-c1cccc(C(F)(F)F)c1
- Activity (SARS-CoV-2 [1]): Active
- Activity (SARS-CoV-2 [2]): Active
